Laboratory results: patent publication US20240217981A1, “CRYSTALLINE COMPOUND OF MUSCARINIC ACETYLCHOLINE M1 RECEPTOR ANTAGONISTS” (Pipeline Therapeutics, Inc., priority 2021, published 2024)
Values after ≈ are worked out from the molar mass of the structure shown. Like-named read-outs stand apart in the source and are kept apart here.

Columns and labels:
[1] = Physicochemical stability evaluation; conditions: for Form change: XRPD
Experimental: In these experiments, about 10 mg of Freebase Type A was stored at 25° C./60% RH, 40° C./75% RH for one week and 60° C./sealed for 24 hrs. After storage, the solids were tested by XRPD and HPLC.

[2] = Kinetic solubility evaluation; type: physicochemical; conditions: for solubility / solubility at 1 h / solubility at 4 h / solubility at 24 h: thermodynamic from solid; for FC (Form change): residual solid by XRPD; for solubility at 1 h / solubility at 4 h / solubility at 24 h: read-out: S (Solubility of freebase)
Experimental: In these experiments, about 20 mg of Freebase Type A was suspended in 4 mL of FaSSIF, FeSSIF, SGF and H2O, respectively. After rolling at 37° C. for 1 hr, 4 hrs and 24 hrs, the suspension was centrifuged and filtered through a 0.45 μm PTFE membrane. The residual solids were tested by XRPD and the supernatant was tested by HPLC and pH meter. Detailed procedure can be found in Table 15.

[3] = Hygroscopicity evaluation by DVS test; type: physicochemical
Experimental: Hygroscopicity of Freebase Type A was evaluated by DVS test. […] For the minus weight change observed in the desorption curve, it might be related to sample loss or instrument fluctuation.

[4] = biological target: T1, human M1 receptor (Homo sapiens, UniProt P11229); assay: In vitro functional assay of muscarinic acetylcholine receptor activity (aequorin calcium flux, reversal of acetylcholine EC50 response); type: cell-based
T1 sequence (P11229 1-460): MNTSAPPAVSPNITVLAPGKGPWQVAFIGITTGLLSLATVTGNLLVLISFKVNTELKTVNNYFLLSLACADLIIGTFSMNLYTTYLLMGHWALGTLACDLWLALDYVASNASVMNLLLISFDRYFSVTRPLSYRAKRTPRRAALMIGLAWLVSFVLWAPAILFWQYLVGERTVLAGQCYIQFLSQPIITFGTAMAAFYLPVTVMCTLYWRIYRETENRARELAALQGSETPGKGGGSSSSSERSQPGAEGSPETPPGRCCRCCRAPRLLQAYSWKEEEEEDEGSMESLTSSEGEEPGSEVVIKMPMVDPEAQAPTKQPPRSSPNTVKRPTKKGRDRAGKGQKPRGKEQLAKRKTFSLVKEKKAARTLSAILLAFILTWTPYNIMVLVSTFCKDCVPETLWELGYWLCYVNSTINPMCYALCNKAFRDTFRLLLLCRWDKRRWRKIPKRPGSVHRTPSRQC
Experimental: CHO-K1 cells stably expressing human M1 receptor with aequorin (Perkin Elmer) were grown in F12 media (Gibco) containing 10% FBS (ATCC), 0.4 mg/mL geneticin (Sigma-Aldrich) and 0.25 mg/mL Zeocin (Invitrogen). Cells were grown as per the manufacturer's protocol. For compound testing, cells were grown to confluency and detached gently with Accutase (Sigma-Aldrich) followed by centrifugation for 5 min at 150×g. Cells were then re-suspended in assay buffer (i.e. DMEM/F-12 HEPES without phenol red (Invitrogen) with 0.1% BSA (Sigma-Aldrich)) at a density of 5×10^6 cells/ml. Under sterile conditions, 5 μM coelenterazine (Invitrogen) was added to the cells, mixed, then incubated at room temperature protected from light, with gentle agitation, for 4 h.
Primary compound plates were prepared in 100% DMSO in opaque 96-well plates (VWR) and serially diluted in half log increments. Secondary compound plates were prepared at 3× concentration in assay buffer. […]
The compound and cells were incubated at room temperature for 30 min in the dark. Acetylcholine at the EC50 concentration was added and calcium flux measured using a FlexStation 3 (Molecular Devices). Sigmoidal dose-response curves were generated by measuring […] over 40 sec and calculating the area under the curve. […]

[5] = biological target: T2, human M2 receptor (Homo sapiens, UniProt P08172); assay: as above; type: cell-based; conditions: CHO-K1 cells expressing human M2 receptor with aequorin; acetylcholine at EC50
T2 sequence (P08172 1-466): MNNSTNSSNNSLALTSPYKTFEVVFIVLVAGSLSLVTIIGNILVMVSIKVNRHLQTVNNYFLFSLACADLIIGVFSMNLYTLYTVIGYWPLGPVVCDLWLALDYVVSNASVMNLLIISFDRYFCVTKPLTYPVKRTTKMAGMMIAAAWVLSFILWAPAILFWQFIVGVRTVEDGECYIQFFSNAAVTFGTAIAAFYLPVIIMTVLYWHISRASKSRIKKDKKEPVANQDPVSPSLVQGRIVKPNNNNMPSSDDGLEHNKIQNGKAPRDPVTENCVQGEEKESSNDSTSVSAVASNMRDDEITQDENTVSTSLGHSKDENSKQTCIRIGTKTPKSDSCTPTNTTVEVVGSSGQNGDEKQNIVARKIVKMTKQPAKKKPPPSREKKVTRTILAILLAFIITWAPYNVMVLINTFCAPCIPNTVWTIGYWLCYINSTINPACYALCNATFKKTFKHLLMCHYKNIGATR
Experimental: (§1) Primary compound plates were prepared in 100% DMSO in opaque 96-well plates (VWR) and serially diluted in half log increments. Secondary compound plates were prepared at 3× concentration in assay buffer. The compound (6-(3-(4,4-difluoro-4-(2-methoxypyridin-4-yl)butanoyl)-3,8-diazabicyclo[3.2.1]octan-8-yl)nicotinonitrile) was added to white, clear bottom tissue culture treated 96-well plates (Fisher Scientific). Coelenterazine-loaded cells were then added at 5×10^5 cells/well.
(§2) The compound and cells were incubated at room temperature for 30 min in the dark. Acetylcholine at the EC50 concentration was added and calcium flux measured using a FlexStation 3 (Molecular Devices). Sigmoidal dose-response curves were generated by measuring […] over 40 sec and calculating the area under the curve. Dose response curves and IC50 values were generated using Prism (GraphPad). The compound was tested at a final concentration range of […] in 0.10% DMSO.
(§3) CHO-K1 cells stably expressing human M2, M3 and M4 receptors, respectively, with aequorin (Perkin Elmer) were used to assess a test compound's ability to dose-dependently reverse the EC50 acetylcholine response. The IC50 of the compound was calculated from the dose response curve.

[6] = biological target: T3, human M4 receptor (Homo sapiens, UniProt P08173); assay: as above; type: cell-based
T3 sequence (P08173 1-479): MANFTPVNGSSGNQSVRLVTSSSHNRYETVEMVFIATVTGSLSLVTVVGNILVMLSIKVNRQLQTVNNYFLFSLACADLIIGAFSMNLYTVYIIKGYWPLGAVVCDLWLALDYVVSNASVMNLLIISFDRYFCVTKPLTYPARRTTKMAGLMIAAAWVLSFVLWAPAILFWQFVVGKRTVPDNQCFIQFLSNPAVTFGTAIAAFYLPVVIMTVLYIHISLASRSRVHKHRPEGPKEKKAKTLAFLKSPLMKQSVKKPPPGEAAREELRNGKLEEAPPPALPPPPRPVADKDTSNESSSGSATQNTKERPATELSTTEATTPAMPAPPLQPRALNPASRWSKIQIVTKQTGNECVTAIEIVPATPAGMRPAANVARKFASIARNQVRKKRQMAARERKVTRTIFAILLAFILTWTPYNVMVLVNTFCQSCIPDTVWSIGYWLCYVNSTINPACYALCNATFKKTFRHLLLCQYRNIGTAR
Experimental: as §1, §2, §3

[7] = biological target: human M3 receptor (Homo sapiens, UniProt P20309); assay: as above; type: cell-based
Experimental: as §1, §2, §3

[8] = 25° C./60% RH, 40° C./75% RH for one week and 60° C./sealed for 24 hrs

human M3 receptor, sequence (P20309 whole entry): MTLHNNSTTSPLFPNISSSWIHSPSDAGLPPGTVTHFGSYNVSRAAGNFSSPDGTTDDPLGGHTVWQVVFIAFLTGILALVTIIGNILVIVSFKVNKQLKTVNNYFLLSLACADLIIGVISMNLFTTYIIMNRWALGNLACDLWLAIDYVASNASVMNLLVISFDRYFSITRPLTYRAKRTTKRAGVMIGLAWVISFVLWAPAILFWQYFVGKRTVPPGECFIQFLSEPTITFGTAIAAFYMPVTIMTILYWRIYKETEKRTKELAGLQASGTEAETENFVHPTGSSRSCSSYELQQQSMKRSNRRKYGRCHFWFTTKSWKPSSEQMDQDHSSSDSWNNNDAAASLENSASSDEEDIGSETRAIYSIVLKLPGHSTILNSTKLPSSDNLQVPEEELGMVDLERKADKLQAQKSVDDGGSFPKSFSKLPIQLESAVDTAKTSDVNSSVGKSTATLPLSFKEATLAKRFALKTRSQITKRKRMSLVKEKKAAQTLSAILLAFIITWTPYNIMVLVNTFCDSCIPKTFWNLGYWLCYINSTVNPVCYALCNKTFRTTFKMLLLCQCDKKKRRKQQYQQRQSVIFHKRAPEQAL

Compound: COc1cc(C(F)(F)CCC(=O)N2CC3CCC(C2)N3c2ccc(C#N)cn2)ccn1 [Compound, 6-(3-(4,4-difluoro-4-(2-methoxypyridin-4-yl)butanoyl)-3,8-diazabicyclo[3.2.1]octan-8-yl)nicotinonitrile]
- HPLC purity Of initial ([1]; 25° C./60% RH, 1 w): 100.00%
- HPLC purity after storage ([1]; 25° C./60% RH, 1 w): 100.00 area %
- form change after storage (XRPD) [1, 8]: no form change was observed
- purity decrease after storage (HPLC) [1, 8]: no purity decrease was detected
- HPLC purity Of initial ([1]; 40° C./75% RH, 1 w): 100.00%
- HPLC purity after storage ([1]; 40° C./75% RH, 1 w): 100.00 area %
- HPLC purity Of initial ([1]; 60° C./sealed, 24 hrs): 100.00%
- HPLC purity after storage ([1]; 60° C./sealed, 24 hrs): 100.00 area %
- Form change ([1]; 25° C./60% RH, 1 w): No
- Form change ([1]; 40° C./75% RH, 1 w): No
- Form change ([1]; 60° C./sealed, 24 hrs): No
- solubility rank order of media, from high to low ([2]; FaSSIF, FeSSIF, SGF and H2O, 37° C.): SGF>FeSSIF>FaSSIF>H2O
- form change after rolling in tested media ([2]; XRPD, tested media, 1, 4, and 24 hrs): no form change was observed
- solubility ([2]; pH 1.77, simulated gastric fluid, SGF, 37° C., over 1 hr, 4 hrs and 24 hrs, read-out: solubility in SGF): ≤ 150 µg/mL
- solubility ([2]; pH 6.95, water, H2O, 37° C., read-out: solubility in H2O): 20 µg/mL (≈ 46.8 µM)
- FC (Form change) ([2]; FaSSIF, 37° C., 1 hr): No
- FC (Form change) ([2]; FaSSIF, 37° C., 4 hrs): No
- FC (Form change) ([2]; FaSSIF, 37° C., 24 hrs): No
- FC (Form change) ([2]; FeSSIF, 37° C., 1 hr): No
- FC (Form change) ([2]; FeSSIF, 37° C., 4 hrs): No
- FC (Form change) ([2]; FeSSIF, 37° C., 24 hrs): No
- FC (Form change) ([2]; H2O, 37° C., 1 hr): No
- FC (Form change) ([2]; H2O, 37° C., 4 hrs): No
- FC (Form change) ([2]; H2O, 37° C., 24 hrs): No
- FC (Form change) ([2]; SGF, 37° C., 1 hr): No
- FC (Form change) ([2]; SGF, 37° C., 4 hrs): No
- FC (Form change) ([2]; SGF, 37° C., 24 hrs): No
- solubility at 1 h ([2]; simulated gastric fluid, SGF (pH 1.77), 37° C., 1 hr): 140 µg/mL (≈ 328 µM)
- solubility at 4 h ([2]; simulated gastric fluid, SGF (pH 1.77), 37° C., 4 hrs): 150 µg/mL (≈ 351 µM)
- solubility at 24 h ([2]; simulated gastric fluid, SGF (pH 1.77), 37° C., 24 hrs): 140 µg/mL (≈ 328 µM)
- solubility at 1 h ([2]; FaSSIF (pH 6.47), 37° C., 1 hr): 30 µg/mL (≈ 70.2 µM)
- solubility at 4 h ([2]; FaSSIF (pH 6.47), 37° C., 4 hrs): 30 µg/mL (≈ 70.2 µM)
- solubility at 24 h ([2]; FaSSIF (pH 6.47), 37° C., 24 hrs): 30 µg/mL (≈ 70.2 µM)
- solubility at 1 h ([2]; FeSSIF (pH 4.99), 37° C., 1 hr): 60 µg/mL (≈ 140 µM)
- solubility at 4 h ([2]; FeSSIF (pH 4.99), 37° C., 4 hrs): 60 µg/mL (≈ 140 µM)
- solubility at 24 h ([2]; FeSSIF (pH 4.99), 37° C., 24 hrs): 60 µg/mL (≈ 140 µM)
- solubility at 1 h ([2]; water, H2O (pH 6.95), 37° C., 1 hr): 20 µg/mL (≈ 46.8 µM)
- solubility at 4 h ([2]; water, H2O (pH 6.95), 37° C., 4 hrs): 20 µg/mL (≈ 46.8 µM)
- solubility at 24 h ([2]; water, H2O (pH 6.95), 37° C., 24 hrs): 20 µg/mL (≈ 46.8 µM)
- water uptake ([3]; 80% RH/25° C., sorption cycle from 0% RH to 95% RH): 0.01%
- hygroscopicity ([3]; DVS test): non-hygroscopic
- form change after the DVS test ([3]; XRPD): no form change was observed
- IC50 [4]: < 10 nM
- IC50 [5]: 1000 to 10000 nM
- IC50 [6]: 100 to 1000 nM
- IC50 [7]: 100 to 1000 nM
